From US20240226232A9, “PROTEIN-BASED THERAPIES FOR OCULAR CONDITIONS” (The Regents of the University of Colorado, A Body Corporate, priority 2021, published 2024)

Key:
RGCs [1] = assay: Microbead mouse model of ocular hypertension, Brn3a-positive RGC count and βIII-tubulin staining after intravitreal peptide; assay type: in vivo, mice; conditions: 1 μg intravitreal once weekly for three weeks; for RGCs per mm^2 in retina after six weeks: control almost 3,400, vehicle less than 2,300
Method: The first ocular hypertension model was generated by initially anesthetizing mice via intraperitoneal injection of ketamine/xylazine supplemented with a topical application of 0.5% proparacaine hydrochloride. […] The cornea was gently punctured near the center using a 33G needle, and a small air bubble was injected to lift the anterior chamber of the eye. […] An antibiotic ointment was applied topically on the injected eye to prevent infection.
The intraocular pressure was measured weekly for six weeks using a tonometer. In particular, the mice were placed in an anesthetic chamber filled with a sustained flow of isoflurane (5% isoflurane at 2 L/minute mixed with oxygen). The tonometer took five measurements for each weekly check-in, eliminated the high and low readings, and generated an average intraocular pressure from the remaining readings for each mouse.
After six weeks of microbead injection, the eyes were dissected out and post-fixed with 4% PFA overnight at 4° C. The retinas were subsequently dissected out and washed three times in PBS before blocking (5% normal donkey serum and 1% Triton X-100 in PBS) overnight. Whole-mount retinas were then immunostained for Brn3a and βIII-tubulin (1:500 dilution), which are markers for RGCs and axonal cells, respectively. The retinas were then stained with Alexa Fluor 488 donkey anti-mouse or Texas red-conjugated goat anti-rabbit IgG (1:250 dilution). Four image fields from each retinal region were obtained using a 20× lens with a Zeiss confocal. The Brn3a-positive RGC numbers were counted (cells/mm^2) in the mid-peripheral regions from four quadrants of the whole-mounted retina using the ImageJ software (NIH). Contralateral uninjured eyes were used as a control.

RGCs [2] = assay: Silicone oil mouse model of ocular hypertension, Brn3a-positive RGC count after intravitreal peptide; assay type: in vivo, mice; conditions: single 1 μg intravitreal dose, day 28
Excerpt: The second ocular hypertension model was generated by anesthetizing mice via intraperitoneal injection of ketamine/xylazine supplemented with topical application of 0.5% proparacaine hydrochloride. A 33G needle was tunneled through the cornea of each tested eye at the superotemporal side close to the limbus to reach the anterior chamber without injuring the lens or iris. […] After the injection, the upper eyelid was gently massaged to close the corneal incision and minimize oil leakage, and veterinary antibiotic ointment was applied to the surface of the injected eye to prevent infection.
After two weeks, the silicone oil droplet was removed. […] Veterinary antibiotic ointment was applied to the surface of the eye after oil removal.
The intraocular pressure of each eye was monitored once weekly until four weeks after silicone oil injection using a tonometer under anesthesia with a sustained flow of isoflurane (5% isoflurane at 2 L/minute mixed with oxygen). Two weeks after oil removal (day 28), retinas were removed and immunostained with Brn3a and βIII-tubulin antibodies to visualize and count the surviving RGCs.

[3] = tested on: Human retinal endothelial cells (HRECs); assay: Pro-inflammatory cytokine-mediated apoptosis of HRECs, cleaved caspase-3 Western blot; assay type: cell-based; conditions: 200 μg/mL peptide for three hours, then cytokine mixture (CM) 48 hours, CM only approx. 1:1
Method: The sequence of the first scrambled control peptide was […] (SEQ ID NO: 4), and the sequence of the second scrambled control peptide was […] (SEQ ID NO: 5). All test cells were then treated with a combination of pro-inflammatory cytokines (IFN-γ at 50 U/mL+TNF-α at 20 ng/mL+IL-1β at 20 ng/mL) for 48 hours.
Cell lysates were prepared using 1×RIPA buffer containing a protease inhibitor cocktail. Protein concentrations of the cell lysates were measured using the BCA method, and 25 μg of protein were used for immunoblotting. To measure HREC apoptosis, the cells were immunostained for active (cleaved) caspase-3, specifically, which is a marker for apoptosis. β-actin antibody staining was used as a control for measuring levels of a housekeeping protein and for calculating protein density compared to caspase-3 levels.

retinal capillary cells = assay: I/R injury mouse model, acellular retinal capillary count; assay type: in vivo, C57BL/6J mice; conditions: 0.5 μg intravitreal immediately after I/R injury and again after one week; day 14
Method: This ocular hypertension model was generated by initially anesthetizing 12-week-old C57BL/6J mice via intraperitoneal injection of ketamine/xylazine supplemented with a topical application of 0.5% proparacaine hydrochloride. To perform the I/R injury, the right eye was cannulated into the anterior chamber with a 33-gauge needle connected to an elevated pouch containing 250 ml of 0.9% NaCl solution. […] The PBS-injected eyes were used as vehicle controls. The contralateral eyes were used as additional controls.
After careful removal of the internal limiting membrane (ILM), retinas were placed in 12-well plates with Tris-HCl buffer at a pH of 7.8, and then shaken overnight to loosen the remaining RGCs. The retinas were then transferred to glass microscopy slides and the remaining neuronal tissues carefully dislodged through gentle agitation produced by a 20-μL pipette in Tris-HCl. Periodic acid Schiff (PAS) stain was used to visualize the isolated retinal capillary layer. An inverted fluorescence microscope was used to image the mounted capillaries, and the acellular capillaries from each treatment group were counted and analyzed.

IL-1β = assay: I/R injury mouse model, retinal cytokine mRNA by quantitative real-time PCR; assay type: in vivo, mice; conditions: two days after I/R injury; 0.5 μg intravitreal
Method: (§1) To measure pro-inflammatory cytokine levels, mice were sacrificed, and retinas were dissected two days after I/R injury. Total RNA was then lysed from the retinas, two micrograms of RNA was reverse-transcribed to synthesize cDNA, and quantitative real-time PCR was performed. The sequences of the PCR primers were as follows: TNF-α forward primer—5′-[…]-3′ and reverse primer—[…]-3′; IL-1β forward primer—5′-5′-[…]-3′ and reverse primer—5′-[…]-3; IFN-γ forward primer—5′-[…]-3′ and reverse primer—5′-[…]-3′. The mRNA levels were analyzed using the comparative Ct method (2-ΔΔCT) and then normalized to β-actin (forward primer—5′-[…]-3′ and reverse primer—5′-[…]-3′).

TNF-α = assay: as above; assay type: in vivo, mice; conditions: two days after I/R injury; 0.5 μg intravitreal
Method: as §1

| Substance | axonal degeneration (βIII-tubulin immunostaining) (RGCs [1]) | reduction in RGC death (compared to vehicle control group) (RGCs [1]) | RGCs per mm^2 in retina after six weeks (RGCs [1]) | RGC death reduced by (compared to PBS-treated control 206) (RGCs [2]) | density ratio of cleaved caspase-3 to β-actin [3] | number of acellular capillaries per retina (retinal capillary cells) | reduction of the increase in IL-1β expression compared to the vehicle group (IL-1β) | reduction of the increase in TNF-α expression compared to the vehicle group (TNF-α) |
| --- | --- | --- | --- | --- | --- | --- | --- | --- |
| DRFSVNLDVKHFSPEELKVKV [peptain-1] | inhibited axonal degeneration | 4% | over 3,200 RGCs per mm^2 | 15.7% | ~0.5 | lower number of per-retina acellular capillaries | 4.6 fold | 6.2 fold |
| FEPSVRFSKVDHLVKENDLVK [Scr-2] |  |  |  |  | greater density ratio |  |  |  |
| G^73HFSVLLDVK(acetyl)HFSPEEIAVK^91 [peptain-3a] | inhibited axonal degeneration | 12% | about 3,000 RGCs per mm^2 | 14.2% |  |  |  |  |
| SLKEKRNFDVSEVKHVLFVDP [Scr-1] |  |  |  |  | greater density ratio |  |  |  |
